Laboratory results: patent US8299262B2, “Pyridylmethyl-sulfonamide compounds” (BASF SE, priority 2007, dated 2012)
Where two headings read alike, the source gives them in different places.

What was measured:
Phytophthora infestans = assay type: cell-based; settings: single compound
Pyricularia oryzae [1] = assay type: cell-based; settings: single compound
Septoria tritici = experiment: Synergistic mixtures, microtiter test, leaf blotch pathogen Septoria tritici (Use Example 26); assay type: cell-based; settings: single compound
Fusarium culmorum = experiment: Synergistic mixtures, microtiter test, Fusarium culmorum (Use Example 27); assay type: cell-based; settings: single compound
Pyrenophora teres = experiment: Synergistic mixtures, microtiter test, net blotch pathogen Pyrenophora teres (Use Example 29); assay type: cell-based; settings: single compound
Gaeumannomyces graminis = experiment: Synergistic mixtures, microtiter test, Gaeumannomyces graminis (Use Example 30); assay type: cell-based; settings: single compound
Thielaviopsis basicola = experiment: Synergistic mixtures, microtiter test, Thielaviopsis basicola (Use Example 31); assay type: cell-based; settings: single compound
Verticillium dahliae = settings: single compound
Colletotrichum truncatum = experiment: Synergistic mixtures, microtiter test, Colletotrichum truncatum (Use Example 28); assay type: cell-based; settings: single compound
Puccinia recondita = experiment: Synergistic mixtures, greenhouse, preventative control of brown rust on wheat caused by Puccinia recondita (Use Example 34); assay type: in vivo; settings: single compound, untreated control 90% disease
Protocol: These percentages were converted into efficacies. An efficacy of 0 means that the growth level of the pathogens corresponds to that of the untreated control; an efficacy of 100 means that the pathogens were not growing.
The expected efficacies of active compound mixtures were determined using Colby's formula [R. S. Colby, Calculating synergistic and antagonistic responses of herbicide combinations, Weeds 15, 20-22 (1967)] and compared with the observed efficacies. E=x+y−x·y/100 Colby's formula • E expected efficacy, expressed in % of the untreated control, when using the mixture of the compounds A and B at the concentration a and b • x efficacy, expressed in % of the untreated control, when using compound A at a concentration of a • y efficacy, expressed in % of the untreated control, when using compound B at a concentration of b A) Microtiter Tests
The spray solutions were prepared in several steps:
The stock solution were prepared as follows: a mixture of acetone and/or dimethylsulfoxide and the wetting agent/emulsifier Wettol, which is based on ethoxylated alkylphenoles, in a relation (volume) solvent-emulsifier of 99 to 1 was added to 25 mg of the compound to give a total of 10 ml. Water was then added to total volume of 100 ml.
This stock solution was diluted with the described solvent-emulsifier-water mixture to the given concentration. The compounds pyraclostrobin, boscalid and epoxiconazole were used as commercial finished formulations and diluted with water to the stated concentration of the active compound.
The first two developed leaves of pot-grown wheat seedling were sprayed to run-off with an aqueous suspension, containing the concentration of active ingredient or their mixture as described below. The next day the plants were inoculated with spores of Puccinia recondita. To ensure the success the artificial inoculation, the plants were transferred to a humid chamber without light and a relative humidity of 95 to 99% and at temperatures between 20 and 24° C. for 24 h. Then, the plants were cultivated for 6 days in a greenhouse chamber at 20 to 24° C. and a relative humidity between 65 and 70%. The extent of fungal attack on the leaves was visually assessed as % diseased leaf area.

Fusarium oxysporum = settings: single compound, 0.25 ppm
Pyricularia oryzae [2] = assay type: cell-based; settings: control =100%, day 7
Alternaria solani = experiment: Synergistic mixtures, microtiter test, early blight pathogen Alternaria solani (Use Example 24); assay type: cell-based; settings: single compound
Phakopsora pachyrhizi = experiment: Comparative greenhouse test, curative action against soybean rust Phakopsora pachyrhizi (Use Example 22); assay type: in vivo; settings: curative spray on soybean, untreated control 100
Protocol: The active compounds were formulated separately or together as a stock solution comprising 25 mg of active compound which was made up to 10 ml using a mixture of acetone and/or dimethyl sulfoxide (DMSO) and the emulsifier Wettol EM 31 (wetting agent having emulsifying and dispersing action based on ethoxylated alkylphenols) in a volume ratio of solvent/emulsifier of 99 to 1. This solution was then made up to 100 ml using water. This stock solution was diluted with the solvent/emulsifier/water mixture described to the active compound concentration given below.
Leaves of potted soybean seedlings were dusted with a suspension of spores of rust of soybean (Phakopsora pachyrhizi). The plants were then placed in a chamber with high atmospheric humidity (90 to 95%), at 23 to 27° C., for 24 hours. During this time, the spores germinated and the germinal tubes penetrated into the leaf tissue. The next day, the infected plants were sprayed to runoff point with an aqueous suspension having the concentration of active compound stated in table 4 (250 ppm). After drying of the sprayed suspension, the test plants were returned to the greenhouse and cultivated at temperatures between 23 and 27° C. and at 60 to 80% relative atmospheric humidity for a further 14 days. The extent of the rust development on the leaves was then determined visually.

## O=C1C2CC=CCC2C(=O)N1SC(Cl)(Cl)Cl (stereo not shown) [Captan, reference compound]
Phytophthora infestans; 0.004 ppm
  Observed efficacy (%): 0%
Phytophthora infestans; 0.063 ppm
  Observed efficacy (%): 7%
Phytophthora infestans; 0.25 ppm
  Observed efficacy (%): 3%
Pyricularia oryzae [1]; 0.063 ppm
  Observed efficacy (%): 0%
Septoria tritici; 1 ppm
  Observed efficacy (%): 31%
Fusarium culmorum; 4 ppm
  Observed efficacy (%): 39%
Pyrenophora teres; 0.016 ppm
  Observed efficacy (%): 5%
Pyrenophora teres; 0.063 ppm
  Observed efficacy (%): 16%
Gaeumannomyces graminis; 0.016 ppm
  Observed efficacy (%): 12%
Gaeumannomyces graminis; 0.063 ppm
  Observed efficacy (%): 42%
Thielaviopsis basicola; 0.25 ppm
  Observed efficacy (%): 40%
Verticillium dahliae; 0.25 ppm
  Observed efficacy (%): 26%

## COC(=O)N(OC)c1ccccc1COc1ccn(-c2ccc(Cl)cc2)n1 [Pyraclostrobin, reference compound]
Phytophthora infestans; 0.00025 ppm
  Observed efficacy (%): 8%
Pyricularia oryzae [1]; 0.001 ppm
  Observed efficacy (%): 17%
Fusarium culmorum; 0.25 ppm
  Observed efficacy (%): 0%
Colletotrichum truncatum; 0.063 ppm
  Observed efficacy (%): 27%
Colletotrichum truncatum; 0.25 ppm
  Observed efficacy (%): 60%
Pyrenophora teres; 0.016 ppm
  Observed efficacy (%): 52%
Gaeumannomyces graminis; 0.00025 ppm
  Observed efficacy (%): 29%
Gaeumannomyces graminis; 0.001 ppm
  Observed efficacy (%): 57%
Thielaviopsis basicola; 0.25 ppm
  Observed efficacy (%): 19%
Puccinia recondita; 0.016 ppm
  Observed efficacy (%): 0%
Puccinia recondita; 0.063 ppm
  Observed efficacy (%): 0%
Puccinia recondita; 0.25 ppm
  Observed efficacy (%): 0%
Fusarium oxysporum
  Observed efficacy (%): 0%

## COc1cc(CNS(=O)(=O)c2ccc(Oc3ccccn3)cc2)ccn1 [Example 7]
Pyricularia oryzae [2]
  growth in [%] at 31 ppm: 53%
Phytophthora infestans; 0.016 ppm
  Observed efficacy (%): 11%
Alternaria solani; 0.016 ppm
  Observed efficacy (%): 11%
Pyricularia oryzae [1]; 0.063 ppm
  Observed efficacy (%): 1%
Fusarium culmorum; 16 ppm
  Observed efficacy (%): 7%
Colletotrichum truncatum; 4 ppm
  Observed efficacy (%): 20%
Pyrenophora teres; 0.25 ppm
  Observed efficacy (%): 17%
Pyrenophora teres; 1 ppm
  Observed efficacy (%): 28%
Gaeumannomyces graminis; 0.063 ppm
  Observed efficacy (%): 9%
Gaeumannomyces graminis; 0.25 ppm
  Observed efficacy (%): 51%

## COc1cc(CNS(=O)(=O)c2ccc(Oc3cccc(C)n3)cc2)ccn1 [Example 45]
Alternaria solani; 0.063 ppm
  Observed efficacy (%): 1%
Pyricularia oryzae [1]; 0.063 ppm
  Observed efficacy (%): 30%
Septoria tritici; 4 ppm
  Observed efficacy (%): 50%
Fusarium culmorum; 16 ppm
  Observed efficacy (%): 2%
Colletotrichum truncatum; 4 ppm
  Observed efficacy (%): 25%
Pyrenophora teres; 1 ppm
  Observed efficacy (%): 25%
Puccinia recondita; 4 ppm
  Observed efficacy (%): 0%
Puccinia recondita; 16 ppm
  Observed efficacy (%): 0%

## COc1cnccc1CNS(=O)(=O)c1ccc(Oc2nccc(C(F)(F)F)n2)cc1 [Example 64]
Alternaria solani; 0.063 ppm
  Observed efficacy (%): 0%
Pyricularia oryzae [1]; 1 ppm
  Observed efficacy (%): 12%
Fusarium culmorum; 16 ppm
  Observed efficacy (%): 0%
Pyrenophora teres; 0.25 ppm
  Observed efficacy (%): 5%
Thielaviopsis basicola; 16 ppm
  Observed efficacy (%): 20%
Puccinia recondita; 4 ppm
  Observed efficacy (%): 0%
Puccinia recondita; 16 ppm
  Observed efficacy (%): 0%

## Cc1cc(Oc2ccc(C(F)(F)F)cn2)ccc1S(=O)(=O)NCc1ccnc(C)c1C [Example 203]
Alternaria solani; 0.063 ppm
  Observed efficacy (%): 0%
Septoria tritici; 4 ppm
  Observed efficacy (%): 45%
Fusarium culmorum; 16 ppm
  Observed efficacy (%): 1%
Colletotrichum truncatum; 4 ppm
  Observed efficacy (%): 36%
Pyrenophora teres; 0.25 ppm
  Observed efficacy (%): 34%
Thielaviopsis basicola; 1 ppm
  Observed efficacy (%): 0%
Thielaviopsis basicola; 4 ppm
  Observed efficacy (%): 13%
Puccinia recondita; 4 ppm
  Observed efficacy (%): 22%
Puccinia recondita; 16 ppm
  Observed efficacy (%): 44%
Verticillium dahliae; 1 ppm
  Observed efficacy (%): 52%
Verticillium dahliae; 4 ppm
  Observed efficacy (%): 56%

## Cc1nccc(CNS(=O)(=O)c2ccc(Oc3ccccc3)cc2)c1C [comparative example 2, reference compound]
Phakopsora pachyrhizi
  infection in [%] at 250 ppm: 100%

## Fc1ccc([C@]2(Cn3cncn3)O[C@H]2c2ccccc2Cl)cc1 [Epoxiconazol, reference compound]
Phytophthora infestans; 0.001 ppm
  Observed efficacy (%): 0%
Pyricularia oryzae [1]; 0.063 ppm
  Observed efficacy (%): 0%
Gaeumannomyces graminis; 0.004 ppm
  Observed efficacy (%): 2%
Puccinia recondita; 0.063 ppm
  Observed efficacy (%): 0%
Puccinia recondita; 0.25 ppm
  Observed efficacy (%): 0%
Puccinia recondita; 1 ppm
  Observed efficacy (%): 33%

## COc1cc(CNS(=O)(=O)c2ccc(Oc3ncc(C(F)(F)F)cc3C)cc2)ccn1 [Example 160]
Phytophthora infestans; 1 ppm
  Observed efficacy (%): 17%
Pyricularia oryzae [1]; 0.25 ppm
  Observed efficacy (%): 60%
Septoria tritici; 4 ppm
  Observed efficacy (%): 55%
Fusarium culmorum; 16 ppm
  Observed efficacy (%): 3%
Colletotrichum truncatum; 4 ppm
  Observed efficacy (%): 37%
Pyrenophora teres; 0.25 ppm
  Observed efficacy (%): 11%
Thielaviopsis basicola; 1 ppm
  Observed efficacy (%): 14%
Puccinia recondita; 1 ppm
  Observed efficacy (%): 0%
Puccinia recondita; 4 ppm
  Observed efficacy (%): 0%

## O=C(Nc1ccccc1-c1ccc(Cl)cc1)c1cccnc1Cl [Boscalid, reference compound]
Phytophthora infestans; 0.016 ppm
  Observed efficacy (%): 5%
Alternaria solani; 0.063 ppm
  Observed efficacy (%): 23%
Fusarium culmorum; 16 ppm
  Observed efficacy (%): 1%
Pyrenophora teres; 0.25 ppm
  Observed efficacy (%): 49%
Puccinia recondita; 0.25 ppm
  Observed efficacy (%): 0%
Puccinia recondita; 1 ppm
  Observed efficacy (%): 0%
Puccinia recondita; 4 ppm
  Observed efficacy (%): 0%
Puccinia recondita; 16 ppm
  Observed efficacy (%): 0%
